# Test results reported in US20060148858A1, “1, 2-Azole derivatives with hypoglycemic and hypolipidemic activity” (priority 2002, published 2006).
row,SMILES,melting point [°C]
1,"CCCc1nn(-c2ccc(C(F)(F)F)cn2)cc1CCCCOc1nn(C)cc1CC(=O)O [Example 61, [1-methyl-3-(4-{3-propyl-1-[5-(trifluoromethyl)-2-pyridinyl]-1H-pyrazol-4-yl}butoxy)-1H-pyrazol-4-yl]acetic acid]",95 to 97
2,"CCCc1nn(-c2ccc(C(F)(F)F)cn2)cc1CCCCOc1ccc(CCC(=O)O)c(C)c1 [Example 64, 3-[2-methyl-4-(4-{3-propyl-1-[5-(trifluoromethyl)-2-pyridinyl]-1H-pyrazol-4-yl}butoxy)phenyl]propanoic acid]",105 to 107
3,"CCCc1nn(-c2ccc(C(F)(F)F)cn2)cc1CCCCOc1nn(-c2ccccc2)cc1CC(=O)O [Example 66, [1-phenyl-3-(4-{3-propyl-1-[5-(trifluoromethyl)-2-pyridinyl]-1H-pyrazol-4-yl}butoxy)-1H-pyrazol-4-yl]acetic acid]",114 to 115
4,"CCCc1nn(-c2ccc(C(F)(F)F)cn2)cc1CCCOc1nn(-c2ccccc2)cc1CC(=O)O [Example 67, [1-phenyl-3-(3-{3-propyl-1-[5-(trifluoromethyl)-2-pyridinyl]-1H-pyrazol-4-yl}propoxy)-1H-pyrazol-4-yl]acetic acid]",123 to 124
5,"CC(C)c1nn(-c2ccc(C(F)(F)F)cn2)cc1CCCCOc1nn(-c2ccccc2)cc1CC(=O)O [Example 68, [3-(4-{3-isopropyl-1-[5-(trifluoromethyl)-2-pyridinyl]-1H-pyrazol-4-yl}butoxy)-1-phenyl-1H-pyrazol-4-yl]acetic acid]",119 to 120
6,"COc1cc(OCCCCc2cn(-c3ccc(C(F)(F)F)cn3)nc2C(C)C)ccc1CCC(=O)O [Example 69, 3-[4-(4-{3-isopropyl-1-[5-(trifluoromethyl)-2-pyridinyl]-1H-pyrazol-4-yl}butoxy)-2-methoxyphenyl]propanoic acid]",125 to 126
7,"CCCc1nn(-c2ccc(C(F)(F)F)cn2)cc1CCCCOc1cc(CCC(=O)O)n(C)n1 [Example 70, 3-[1-methyl-3-(4-{3-propyl-1-[5-(trifluoromethyl)-2-pyridinyl]-1H-pyrazol-4-yl}butoxy)-1H-pyrazol-5-yl]propanoic acid]",122 to 123

# Other lines, results leading:
row,melting point [°C],SMILES
1,159 to 161,"O=C(O)CCc1cc(OCCCc2cn(-c3ccc(C(F)(F)F)cn3)nc2OCc2ccccc2)nn1-c1ccccc1 [Example 71, 3-[3-(3-{3-(benzyloxy)-1-[5-(trifluoromethyl)-2-pyridinyl]-1H-pyrazol-4-yl}propoxy)-1-phenyl-1H-pyrazol-5-yl]propanoic acid]"
2,142 to 143,"CCOc1nn(-c2ccc(C(F)(F)F)cn2)cc1CCOc1ccc(CC(=O)O)cc1 [Example 73, [4-(2-{3-ethoxy-1-[5-(trifluoromethyl)-2-pyridinyl]-1H-pyrazol-4-yl}ethoxy)phenyl]acetic acid]"
3,89 to 90,"CCOc1nn(-c2ccc(C(F)(F)F)cn2)cc1CCOc1cccc(OC(C)(C)C(=O)O)c1 [Example 74, 2-[3-(2-{3-ethoxy-1-[5-(trifluoromethyl)-2-pyridinyl]-1H-pyrazol-4-yl}ethoxy)phenoxy]-2-methylpropanoic acid]"
4,250 to 251,"CCCc1nn(-c2ccc(C(F)(F)F)cn2)cc1CCCCn1cc(CCC(=O)[O-])c(OCC)n1.[Na+] [Example 78, sodium 3-[3-ethoxy-1-(4-{3-propyl-1-[5-(trifluoromethyl)-2-pyridinyl]-1H-pyrazol-4-yl}butyl)-1H-pyrazol-4-yl]propanoate]"
5,121 to 122,"CCCc1nn(-c2ccc(C(F)(F)F)cn2)cc1CCCOc1ccc(CC(=O)O)cc1OC [Example 79, [3-methoxy-4-(3-{3-propyl-1-[5-(trifluoromethyl)-2-pyridyl]-1H-pyrazol-4-yl}propoxy)phenyl]acetic acid]"
6,124 to 126,"CCCc1nn(-c2ccc(C(F)(F)F)cn2)cc1CCCOc1cc(CC(=O)O)ccc1OC [Example 80, [4-methoxy-3-(3-{3-propyl-1-[5-(trifluoromethyl)-2-pyridinyl]-1H-pyrazol-4-yl}propoxy)phenyl]acetic acid]"
